Test results taken from PubChem BioAssay (NCI).
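Values below derive from 48-hour exposures of cells grown in 96-well plates, with endpoints linearly interpolated between the two concentrations bracketing the appropriate inhibition level. TGI denotes the concentration required for complete inhibition of growth.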

Tests used:
Assay in all cases: NCI anticancer screen, dose series, 48 h
T-47D breast = tested on: T-47D breast
RXF 393 renal = tested on: RXF 393 renal
COLO 205 colon = tested on: COLO 205 colon
NCI-H226 lung = tested on: NCI-H226 lung
A549 NSCLC = tested on: A549 NSCLC
MCF7 breast = tested on: MCF7 breast
HOP-62 NSCLC = tested on: HOP-62 NSCLC
CCRF-CEM leukemia = tested on: CCRF-CEM leukemia
HL-60(TB) leukemia = tested on: HL-60(TB) leukemia
MDA-MB-231 breast = tested on: MDA-MB-231 breast
HCC-2998 colon = tested on: HCC-2998 colon
UO-31 renal = tested on: UO-31 renal
IGROV1 ovarian = tested on: IGROV1 ovarian
CAKI-1 renal = tested on: CAKI-1 renal
LOX IMVI melanoma = tested on: LOX IMVI melanoma
EKVX NSCLC = tested on: EKVX NSCLC
RPMI-8226 leukemia = tested on: RPMI-8226 leukemia
SK-MEL-28 melanoma = tested on: SK-MEL-28 melanoma
UACC-257 melanoma = tested on: UACC-257 melanoma
ACHN renal = tested on: ACHN renal
786-0 renal = tested on: 786-0 renal
TK-10 renal = tested on: TK-10 renal
HCT-116 colon = tested on: HCT-116 colon
SK-MEL-2 melanoma = tested on: SK-MEL-2 melanoma
PC-3 prostate = tested on: PC-3 prostate
OVCAR-3 ovarian = tested on: OVCAR-3 ovarian
SF-268 CNS = tested on: SF-268 CNS
SK-OV-3 ovarian = tested on: SK-OV-3 ovarian
BT-549 breast = tested on: BT-549 breast
NCI-H460 lung = tested on: NCI-H460 lung
DU-145 prostate = tested on: DU-145 prostate
MDA-N = tested on: MDA-N
OVCAR-5 ovarian = tested on: OVCAR-5 ovarian
A498 renal = tested on: A498 renal
K-562 leukemia = tested on: K-562 leukemia
NCI-H23 lung = tested on: NCI-H23 lung
SNB-75 CNS = tested on: SNB-75 CNS
NCI/ADR-RES ovarian = tested on: NCI/ADR-RES ovarian
SW-620 colon = tested on: SW-620 colon
SNB-19 CNS = tested on: SNB-19 CNS
HOP-92 NSCLC = tested on: HOP-92 NSCLC
HS 578T breast = tested on: HS 578T breast
HCT-15 colon = tested on: HCT-15 colon
SN12C renal = tested on: SN12C renal
M14 melanoma = tested on: M14 melanoma
UACC-62 melanoma = tested on: UACC-62 melanoma
KM12 colon = tested on: KM12 colon
SK-MEL-5 melanoma = tested on: SK-MEL-5 melanoma
MOLT-4 leukemia = tested on: MOLT-4 leukemia
HT29 colon = tested on: HT29 colon
OVCAR-4 ovarian = tested on: OVCAR-4 ovarian
U251 CNS = tested on: U251 CNS
MDA-MB-435 = tested on: MDA-MB-435
NCI-H522 lung = tested on: NCI-H522 lung
MALME-3M melanoma = tested on: MALME-3M melanoma
OVCAR-8 ovarian = tested on: OVCAR-8 ovarian
SF-295 CNS = tested on: SF-295 CNS
SF-539 CNS = tested on: SF-539 CNS

In the case of `COc1cc2cc(C(=O)N3CC(COS(C)(=O)=O)c4c3cc(N)c3ccccc43)[nH]c2c(OC)c1OC` (stereo not given), the TGI (T-47D breast) was > 100 µM, the TGI (RXF 393 renal) was 0.0377 µM and the TGI (COLO 205 colon) was > 100 µM. The TGI (NCI-H226 lung) was 0.228 µM, the TGI (A549 NSCLC) was > 100 µM and the TGI (MCF7 breast) was > 100 µM. For the same compound, the TGI (HOP-62 NSCLC) was > 100 µM, the TGI (CCRF-CEM leukemia) was > 100 µM and the TGI (HL-60(TB) leukemia) was > 100 µM. For the same compound, the TGI (MDA-MB-231 breast) was < 0.01 µM, the TGI (HCC-2998 colon) was < 0.01 µM and the TGI (UO-31 renal) was > 100 µM. For the same compound, the TGI (IGROV1 ovarian) was > 100 µM, the TGI (CAKI-1 renal) was 0.0928 µM and the TGI (LOX IMVI melanoma) was > 100 µM. The TGI (EKVX NSCLC) was < 0.01 µM, the TGI (RPMI-8226 leukemia) was > 100 µM and the TGI (SK-MEL-28 melanoma) was > 100 µM. The TGI (UACC-257 melanoma) was > 100 µM, the TGI (ACHN renal) was < 0.01 µM and the TGI (786-0 renal) was > 100 µM. For the same compound, the TGI (TK-10 renal) was < 0.01 µM, the TGI (HCT-116 colon) was > 100 µM and the TGI (SK-MEL-2 melanoma) was > 100 µM. For the same compound, the TGI (PC-3 prostate) was 30.5 µM, the TGI (OVCAR-3 ovarian) was > 100 µM and the TGI (SF-268 CNS) was > 100 µM. For the same compound, the TGI (SK-OV-3 ovarian) was 1.28 µM, the TGI (BT-549 breast) was 0.25 µM and the TGI (NCI-H460 lung) was > 100 µM. For the same compound, the TGI (DU-145 prostate) was < 0.01 µM, the TGI (MDA-N) was > 100 µM and the TGI (OVCAR-5 ovarian) was > 100 µM.
In the case of `COc1cccc(N(CN2CC=CC2=O)C(C)=O)c1`, the TGI (A498 renal) was > 100 µM, the TGI (T-47D breast) was > 100 µM and the TGI (RXF 393 renal) was > 100 µM. The TGI (COLO 205 colon) was > 100 µM, the TGI (NCI-H226 lung) was > 100 µM and the TGI (K-562 leukemia) was > 100 µM. The TGI (A549 NSCLC) was > 100 µM, the TGI (MCF7 breast) was > 100 µM and the TGI (NCI-H23 lung) was > 100 µM. The TGI (SNB-75 CNS) was > 100 µM, the TGI (HOP-62 NSCLC) was > 100 µM and the TGI (NCI/ADR-RES ovarian) was > 100 µM. For the same compound, the TGI (CCRF-CEM leukemia) was > 100 µM, the TGI (SW-620 colon) was > 100 µM and the TGI (HL-60(TB) leukemia) was > 100 µM. For the same compound, the TGI (MDA-MB-231 breast) was > 100 µM, the TGI (SNB-19 CNS) was > 100 µM and the TGI (HOP-92 NSCLC) was > 100 µM. The TGI (HS 578T breast) was > 100 µM, the TGI (HCT-15 colon) was > 100 µM and the TGI (HCC-2998 colon) was > 100 µM. The TGI (UO-31 renal) was > 100 µM, the TGI (SN12C renal) was > 100 µM and the TGI (M14 melanoma) was > 100 µM. The TGI (IGROV1 ovarian) was > 100 µM, the TGI (CAKI-1 renal) was > 100 µM and the TGI (LOX IMVI melanoma) was > 100 µM. The TGI (UACC-62 melanoma) was > 100 µM, the TGI (EKVX NSCLC) was > 100 µM and the TGI (KM12 colon) was > 100 µM. The TGI (RPMI-8226 leukemia) was > 100 µM, the TGI (SK-MEL-5 melanoma) was > 100 µM and the TGI (MOLT-4 leukemia) was > 100 µM. The TGI (SK-MEL-28 melanoma) was > 100 µM, the TGI (UACC-257 melanoma) was > 100 µM and the TGI (HT29 colon) was > 100 µM. For the same compound, the TGI (ACHN renal) was > 100 µM, the TGI (786-0 renal) was > 100 µM and the TGI (TK-10 renal) was > 100 µM. For the same compound, the TGI (HCT-116 colon) was > 100 µM, the TGI (OVCAR-4 ovarian) was > 100 µM and the TGI (SK-MEL-2 melanoma) was > 100 µM. For the same compound, the TGI (U251 CNS) was > 100 µM, the TGI (MDA-MB-435) was > 100 µM and the TGI (NCI-H522 lung) was > 100 µM. For the same compound, the TGI (PC-3 prostate) was > 100 µM, the TGI (OVCAR-3 ovarian) was > 100 µM and the TGI (SF-268 CNS) was > 100 µM. For the same compound, the TGI (MALME-3M melanoma) was > 100 µM, the TGI (SK-OV-3 ovarian) was > 100 µM and the TGI (OVCAR-8 ovarian) was > 100 µM. The TGI (NCI-H460 lung) was > 100 µM, the TGI (DU-145 prostate) was > 100 µM and the TGI (MDA-N) was > 100 µM. For the same compound, the TGI (OVCAR-5 ovarian) was > 100 µM, the TGI (SF-295 CNS) was > 100 µM and the TGI (SF-539 CNS) was > 100 µM.
